Results from PubChem BioAssay AID686942 (Broad Institute, 2013).

Tested on: V. cholerae SLS353 luxOD47E qrr4-GFP fluorescence
Experiment: LuxO quorum inhibitors, qrr4 GFP fluorescence in V. cholerae SLS353 luxOD47E, dose response confirmation (AID 686942)

Q: For COc1ccc2cc3c(NC(=O)c4ccco4)nn(C)c3nc2c1, which AC50 is on record?
A: 2000 nM

Q: For Cn1nc(NC(=O)c2ccco2)c2cc3ccccc3nc21, which AC50 is on record?
A: 2000 nM

Q: O=C(Nc1nnc(-c2ccc3c(c2)OCCO3)o1)C1CCCCC1 was tested. Which AC50 did it give?
A: 2000 nM
